Experimental data: US8198332B2, “Salicylamide derivatives as nicotinic alpha 7 modulators” (Roche Palo Alto LLC, priority 2008, dated 2012)

Molecular target: T1, human nicotinic alpha7 WT receptor (Homo sapiens, UniProt P36544)
T1 construct: expressed in transfected cells; host or cells: GH4C1 cells (rat pituitary-derived cell line), RPA clone #34.7
Experiment: Nicotinic alpha 7 modulation assay (FLIPR, cytosolic Ca2+ elevation, FLUO-3)
Format: cell-based
Description: Cell Culture Growth Media: F10 medium (Invitrogen), 2.5% Fetal Bovine Serum (FBS, Summit Biotechnology); 15% heat inactivated donor Horse Serum (Invitrogen), 250 μg/ml Hygromycin B (Invitrogen); and 100 nM Methyllicaconite (MLA, Sigma) are added to each new culture by 50-fold dilution of stock solution prepared in H2O at […].
GH4C1 cells (rat pituitary-derived cell line) stably expressing human nicotinic alpha7 WT receptor (RPA clone #34.7) are cultivated in cell culture growth media (described above) at 37 C in a humidified atmosphere containing 4% CO2. […]
The alpha 7 nAChR assay is a cell-based functional readout designed to determine the effect of test compounds to either directly activate nicotinic receptor channels and/or to modulate activation by the native agonist acetylcholine (ACh, Sigma). […]
Assay of test compound effect on activation of the alpha7 nicotinic receptor channel is done by measurement of cytosolic [Ca^2+] elevation as reported by increased FLUO-3 fluorescence using a two addition experimental design and FLIPR™ (Molecular Devices). Following a 30 second baseline recording, test compounds are added online (dilution scheme below) and cell response is recorded for an additional 5 minutes. After a second addition of ACh (30 μM, FAC), plates are read for an additional 4 minutes. […]

T1 sequence (P36544 23-502): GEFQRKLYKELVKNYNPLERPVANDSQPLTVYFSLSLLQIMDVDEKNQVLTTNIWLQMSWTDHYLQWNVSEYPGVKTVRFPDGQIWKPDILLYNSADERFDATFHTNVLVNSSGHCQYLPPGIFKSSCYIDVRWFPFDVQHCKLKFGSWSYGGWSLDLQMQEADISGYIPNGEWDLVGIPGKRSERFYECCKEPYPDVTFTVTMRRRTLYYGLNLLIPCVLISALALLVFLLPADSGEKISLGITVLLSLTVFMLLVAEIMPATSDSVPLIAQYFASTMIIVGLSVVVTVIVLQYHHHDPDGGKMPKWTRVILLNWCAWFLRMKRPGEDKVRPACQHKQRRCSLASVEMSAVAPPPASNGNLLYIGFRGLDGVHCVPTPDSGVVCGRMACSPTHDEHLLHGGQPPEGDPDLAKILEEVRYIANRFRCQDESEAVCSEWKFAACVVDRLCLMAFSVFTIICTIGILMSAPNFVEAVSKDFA

Structure (SMILES): C#CC1(NC(=O)c2cc(-c3ccc(OC)cc3C)ccc2OCC2CC2)CCCCC1 [I-6, 4-Cyclopropylmethoxy-4′-methoxy-2′-methyl-biphenyl-3-carboxylic acid (1-ethynyl-cyclohexyl)-amide]
- EC50: 0.22 µM
- positive allosteric modulation (GH4C1 cells stably expressing human nicotinic alpha7 WT receptor, FLIPR, second addition of ACh 30 μM): 255%
